Measurements as given in patent US11643431B2, “Uses of hyaluronan conjugate” (priority 2020, dated 2023).

Tests used:
[1] = test system: IL-6 level in LPS-induced A549 cells; experiment: IL-6 level in LPS-induced A549 cells (ELISA); assay type: cell-based, human; details: 0.5 μg/mL LPS, 4.94-400 μM, 48 hours, vs LPS alone, p<0.05
Description: In this example, A549 cells (human alveolar basal epithelial cells) were used to assess the effect of the present NIM-HA conjugate (CA102N) on the IL-6 level.
A549 cells in 600 μL F-12K medium were seeded in a density of 5×10^4 per 24-well and incubated overnight. The next day, the medium was discarded and replaced with a fresh medium containing 1 μg/mL LPS with 0, 0.1, 0.2, 0.4 and 0.8 mg/mL CA102N (eq. 0, 5.9, 11.8, 23.6 and 47.2 μM) conjugate or 5 μg/mL (12.7 μM) dexamethasone, which was then incubated for 48 hours. Then, 300 μL of supernatants were collected, and the IL-6 level was measured using a Human IL-6 Uncoated ELISA kit (Catalogue No. 88-7066; Invitrogen). Cells not treated with LPS are used as the negative control, whereas cells treated with LPS but not CA102N are used as the positive control. The results were summarized in FIG. 3, and the data were expressed as mean±standard deviation (SD).
A549 cells in 600 μL F-12K medium were seeded in a density of 2×10^4 per 24-well and incubated overnight. […] Then, 300 μL of supernatants were collected, and the IL-6 level was measured using Human IL-6 Uncoated ELISA kit (Catalogue No. 88-7066; Invitrogen). […] The results were summarized in FIG. 4, and the data were expressed as mean±standard deviation (SD).

[2] = test system: SARS-CoV-2 pseudotyped lentivirus; assay type: cell-based
[3] = prior studies; cited from earlier work
SARS-CoV-2 pseudovirus = experiment: In vivo SARS-CoV-2 pseudovirus infection, lung luminescence (IVIS); parameters: species or system BALB/c mice; details: vs positive control
IL-6, KC/GRO and MCP-1 = experiment: Serum IL-6 and IL-6 downstream chemokines in CT26 tumor-bearing mice; assay type: in vivo; details: nimesulide alone 1.5 mg/kg and 5.3 mg/kg i.v.
Description: When the tumor volumes reached 25-50 mm^3, tumor-bearing mice were randomized to six groups: vehicle control, 50 mg/kg NIM-HA (eq. 1.3 mg/kg Nim) conjugate, 100 mg/kg (eq. 2.6 mg/kg Nim) NIM-HA conjugate, 200 mg/kg (eq. 5.2 mg/kg Nim) NIM-HA conjugate, 1.5 mg/kg nimesulide, and 5.3 mg/kg nimesulide. The vehicle or test samples were i.v. injected two times weekly for two weeks.
The serum level of IL-6 and two IL-6 downstream chemokines (KC/GRO and MCP-1) were measured following conventional protocols.

Question: For `CC(=O)NC1C(O)OC(CO)C(O)C1OC1OC(C(=O)Nc2ccc(NS(C)(=O)=O)c(Oc3ccccc3)c2)C(O)C(O)C1O` (stereo not drawn) [NIM-HA disaccharide conjugate], which IL-6 level [1] is on record?
Answer: substantially decrease the IL-6 level in LPS-treated cells in a dose-dependent manner

Question: For `CS(=O)(=O)Nc1ccc([N+](=O)[O-])cc1Oc1ccccc1` [nimesulide, N-(4-nitro-2-phenoxyphenyl)methanesulfonamide], which “inhibition of SARS-CoV-2 pseudovirus entry (in words)” value [2] is on record?
Answer: cannot inhibit SARS-CoV-2 pseudovirus infection by blocking the viral entry

Question: What about the hepatotoxicity [3] of the same compound?
Answer: significantly associated with hepatotoxicity

Question: And the “SARS-CoV-2 pseudovirus infection (lung luminescence)” value (SARS-CoV-2 pseudovirus; 4 mg/kg nimesulide i.v. 1 hour before intra-tracheal pseudovirus, 24 hours, p<0.05)?
Answer: inhibit significantly compared to the positive control

Question: And the IL-6 blockade (IL-6, KC/GRO and MCP-1)?
Answer: cannot elicit any effect on IL-6 blockade

Question: With hyaluronic acid [HA] as the compound, how does the “SARS-CoV-2 pseudovirus infection (lung luminescence)” value (SARS-CoV-2 pseudovirus; HA group (dose not given)) read?
Answer: no significant difference between the HA group and the positive control
